Results: patent US20240246948A1, “BENZAMIDE DERIVATIVE, METHOD FOR PREPARING SAME, AND PHARMACEUTICAL COMPOSITION FOR PREVENTION OR TREATMENT OF CANCER CONTAINING SAME AS ACTIVE INGREDIENT” (HK INNO.N CORPORATION, priority 2021, published 2024)

What was measured:
[1] = biological target: Ba/F3 EGFR L858R/T790M/C797S (LTC) (Homo sapiens, UniProt P00533, T790M/C797S/L858R, cells depend on it); experiment: Cell growth inhibitory ability in Ba/F3 cells overexpressing EGFR L858R/T790M/C797S (MTS, CellTiter 96 AQueous); assay type: cell-based; settings: 72 hours, MTS absorbance at 490 nm, read-out: Ba/F3 EGFR triple mutant L858R/T790M/C797S, IC50
Sequence of Ba/F3 EGFR L858R/T790M/C797S (LTC) (P00533 whole entry T790M/C797S/L858R): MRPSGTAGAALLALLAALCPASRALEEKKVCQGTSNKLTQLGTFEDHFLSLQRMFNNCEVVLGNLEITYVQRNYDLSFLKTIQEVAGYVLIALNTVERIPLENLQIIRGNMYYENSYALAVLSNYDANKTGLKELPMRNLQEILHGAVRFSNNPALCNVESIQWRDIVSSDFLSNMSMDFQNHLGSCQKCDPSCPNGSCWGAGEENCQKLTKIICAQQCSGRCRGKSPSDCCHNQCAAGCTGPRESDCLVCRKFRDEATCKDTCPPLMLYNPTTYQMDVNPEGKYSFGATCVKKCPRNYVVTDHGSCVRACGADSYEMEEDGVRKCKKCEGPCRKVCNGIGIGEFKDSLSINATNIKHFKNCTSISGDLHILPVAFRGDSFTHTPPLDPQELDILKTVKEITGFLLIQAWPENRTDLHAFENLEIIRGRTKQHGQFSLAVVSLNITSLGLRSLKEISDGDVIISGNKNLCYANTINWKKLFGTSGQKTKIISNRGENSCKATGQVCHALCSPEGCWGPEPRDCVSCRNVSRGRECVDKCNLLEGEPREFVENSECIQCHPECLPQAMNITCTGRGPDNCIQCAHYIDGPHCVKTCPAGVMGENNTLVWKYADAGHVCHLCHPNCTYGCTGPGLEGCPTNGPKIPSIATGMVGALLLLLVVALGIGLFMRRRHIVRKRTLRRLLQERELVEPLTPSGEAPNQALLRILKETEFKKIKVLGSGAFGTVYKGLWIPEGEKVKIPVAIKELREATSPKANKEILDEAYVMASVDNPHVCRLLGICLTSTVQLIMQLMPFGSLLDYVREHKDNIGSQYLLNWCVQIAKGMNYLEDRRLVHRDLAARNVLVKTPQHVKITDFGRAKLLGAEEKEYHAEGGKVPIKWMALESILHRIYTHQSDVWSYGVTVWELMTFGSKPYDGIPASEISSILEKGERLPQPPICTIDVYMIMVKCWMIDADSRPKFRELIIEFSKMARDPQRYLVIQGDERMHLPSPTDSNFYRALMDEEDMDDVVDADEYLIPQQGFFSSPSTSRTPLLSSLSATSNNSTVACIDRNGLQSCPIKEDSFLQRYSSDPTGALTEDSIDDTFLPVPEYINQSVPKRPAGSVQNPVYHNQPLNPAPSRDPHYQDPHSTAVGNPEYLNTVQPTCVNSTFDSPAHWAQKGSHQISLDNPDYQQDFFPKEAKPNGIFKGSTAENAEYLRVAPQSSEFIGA
Protocol: (§1) In order to confirm that the compound represented by formula 1 provided in one aspect of the present invention acts as an allosteric inhibitor against WT and mutant of EGFR, the cell growth inhibitory effect was evaluated in BaF3 cells overexpressing WT and mutant of EGFR.
(§2) More specifically, the cell growth inhibitory ability of the compound of the present invention to the Ba/F3 cell line overexpressing WT and mutant of EGFR was evaluated using CellTiter 96 AQueous Non-Radioactive Cell Proliferation Assay system of Promega, as follows. AQueous Non-Radioactive Cell Proliferation Assay is a method of confirming cell growth inhibitory ability by measuring the degree of color development by reducing MTS (3-(4,5-Dimethylthiazol-2-yl)-5-(3-carboxymethoxyphenyl)-2-(4-sulfophenyl)-2H-tetrazolium) to Formazan by a reductase secreted by mitochondria present in living cells in a cell culture state. The Ba/F3 EGFR WT and Ba/F3 EGFR del19/T790M/C797S (DTC), Ba/F3 EGFR L858R (L), Ba/F3 EGFR L858R/T790M (LT), and Ba/F3 EGFR L858R/T790M/C797S (LTC) mutation cell lines used in the present invention were purchased from the laboratory of Professor Byung-cheol Cho, Yonsei University. All cell lines were cultured in RPMI supplemented with 10% FBS, 1% penicillin-streptomycin and 1 μg/ml of puromycine in a 5% CO2 incubator at 37° C.
(§3) The cell survival inhibitory effect of the compound according to each EGFR mutation was analyzed by the following analysis method.
(§4) BaF3 cells were distributed in a 96-well cell culture plate at the density of 2000˜10000 cells/100 μL/well, and cultured for 24 hours. Thereafter, the concentration of the compound represented by formula 1 provided in one aspect of the present invention was prepared to double the final concentrations of 0.1 nM, 1 nM, 10 nM, 100 nM, 1000 nM and 10000 nM, and the compound was treated to the plate (100 μL/well). The plate was reacted in an incubator at 37° C. for 72 hours. Then, MTS was treated to the plate (20 μL/well) and the plate was incubated at 37° C. for 2 to 4 hours. Finally, after measuring the absorbance at 490 nm using a microplate reader, the relative value compared to 0 nM (% Control) was obtained to confirm the cell growth inhibitory ability of the compound. The measured values were analyzed using Prism program (version 8.0, Graphpad Software, Inc.), and the IC50 value (Inhibition concentration 50), an indicator of the cell growth inhibitory ability of the compound, was calculated.

[2] = biological target: Ba/F3 EGFR L858R/T790M (LT) (Homo sapiens, UniProt P00533, T790M/L858R, cells depend on it); experiment: Cell growth inhibitory ability in Ba/F3 cells overexpressing EGFR L858R/T790M (MTS, CellTiter 96 AQueous); assay type: cell-based; settings: 72 hours, MTS absorbance at 490 nm, read-out: Ba/F3 EGFR double mutant L858R/T790M, IC50
Sequence of Ba/F3 EGFR L858R/T790M (LT) (P00533 whole entry T790M/L858R): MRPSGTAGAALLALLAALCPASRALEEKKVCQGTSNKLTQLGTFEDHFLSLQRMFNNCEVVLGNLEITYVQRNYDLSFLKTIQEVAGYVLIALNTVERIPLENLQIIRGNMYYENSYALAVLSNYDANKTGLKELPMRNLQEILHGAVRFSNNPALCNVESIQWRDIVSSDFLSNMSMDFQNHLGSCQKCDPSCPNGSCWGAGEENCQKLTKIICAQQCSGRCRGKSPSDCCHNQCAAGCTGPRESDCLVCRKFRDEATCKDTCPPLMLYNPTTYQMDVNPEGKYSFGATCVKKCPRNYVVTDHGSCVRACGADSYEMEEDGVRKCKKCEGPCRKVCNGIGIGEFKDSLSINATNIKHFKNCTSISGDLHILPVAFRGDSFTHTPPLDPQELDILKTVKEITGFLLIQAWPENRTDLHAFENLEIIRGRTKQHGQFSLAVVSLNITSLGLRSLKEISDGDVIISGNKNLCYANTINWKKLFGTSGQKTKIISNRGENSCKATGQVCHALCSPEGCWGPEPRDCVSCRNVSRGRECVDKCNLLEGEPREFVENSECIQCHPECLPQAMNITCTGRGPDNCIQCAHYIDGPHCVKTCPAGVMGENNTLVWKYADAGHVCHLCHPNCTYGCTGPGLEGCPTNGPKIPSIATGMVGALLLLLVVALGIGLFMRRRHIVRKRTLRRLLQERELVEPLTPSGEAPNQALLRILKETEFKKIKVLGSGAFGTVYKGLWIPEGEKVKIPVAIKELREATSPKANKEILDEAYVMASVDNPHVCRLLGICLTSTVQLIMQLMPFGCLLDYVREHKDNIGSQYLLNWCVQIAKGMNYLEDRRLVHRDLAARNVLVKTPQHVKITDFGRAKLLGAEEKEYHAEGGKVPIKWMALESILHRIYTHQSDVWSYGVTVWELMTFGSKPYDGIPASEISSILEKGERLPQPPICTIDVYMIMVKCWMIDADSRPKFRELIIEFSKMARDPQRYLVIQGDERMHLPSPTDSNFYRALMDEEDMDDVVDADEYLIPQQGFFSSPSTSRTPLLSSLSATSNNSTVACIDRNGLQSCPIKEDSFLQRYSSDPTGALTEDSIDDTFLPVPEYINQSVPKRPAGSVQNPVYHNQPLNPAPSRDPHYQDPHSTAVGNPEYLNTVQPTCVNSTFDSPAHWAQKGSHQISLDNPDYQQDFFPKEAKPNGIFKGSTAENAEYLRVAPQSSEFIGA
Protocol: as §1, §2, §3, §4

| SMILES | GI50 [1] | GI50 [2] |
| --- | --- | --- |
| CC(C)c1cc(C(=O)N[C@@H](c2cc3ccccc3[nH]2)c2cc(F)ccc2O)cc(-c2ccc(N3CCC(N)CC3)cc2)c1 [Example 2, (R)-4′-(4-aminopiperidine-1-yl)-N-((5-fluoro-2-hydroxyphenyl)(1H-indole-2-yl)methyl)-5-isopropyl-[1,1′-biphenyl]-3-carboxamide] | > 200 nM | > 200 nM |
| COc1cc(C(=O)N[C@@H](c2cc3ccccc3[nH]2)c2cc(F)ccc2O)cc(-c2ccc(N3CCC(N)CC3)cc2)c1 [Example 3, (R)-4′-(4-aminopiperidine-1-yl)-N-((5-fluoro-2-hydroxyphenyl)(1H-indole-2-yl)methyl)-5-methoxy-[1,1′-biphenyl]-3-carboxamide] | > 200 nM | > 200 nM |
| CC(C)(C)c1cc(C(=O)N[C@@H](c2cc3ccccc3[nH]2)c2cc(F)ccc2O)cc(-c2ccc(N3CCC(N)CC3)cc2)c1 [Example 4, (R)-4′-(4-aminopiperidine-1-yl)-5-(tert-butyl)-N-((5-fluoro-2-hydroxyphenyl)(1H-indole-2-yl)methyl)-[1,1′-biphenyl]-3-carboxamide] | > 200 nM | > 200 nM |
| NC1CCN(c2ccc(-c3cc(F)cc(C(=O)N[C@@H](c4cc5ccccc5[nH]4)c4cc(F)ccc4O)c3)cc2)CC1 [Example 5, (R)-4′-(4-aminopiperidine-1-yl)-5-fluoro-N-((5-fluoro-2-hydroxyphenyl)(1H-indole-2-yl)methyl)-[1,1′-biphenyl]-3-carboxamide] | > 200 nM | < 30 nM |
| NC1CCN(c2ccc(-c3cc(C(=O)N[C@@H](c4cc5ccccc5[nH]4)c4cc(F)ccc4O)cc(C(F)(F)F)c3)cc2)CC1 [Example 6, 4′-(4-aminopiperidine-1-yl)-N-((5-fluoro-2-hydroxyphenyl)(1H-indole-2-yl)methyl)-5-(trifluoromethyl)-[1,1′-biphenyl]-3-carboxamide] | > 200 nM | > 200 nM |
| NC1CCN(c2ccc(-c3cc(C(=O)N[C@@H](c4cc5ccccc5[nH]4)c4cc(F)ccc4O)cc([N+](=O)[O-])c3)cc2)CC1 [Example 7, 4′-(4-aminopiperidine-1-yl)-N-((5-fluoro-2-hydroxyphenyl)(1H-indole-2-yl)methyl)-5-nitro-[1,1′-biphenyl]-3-carboxamide] | > 200 nM | > 200 nM |
| CSc1cc(C(=O)N[C@@H](c2cc3ccccc3[nH]2)c2cc(F)ccc2O)cc(-c2ccc(N3CCC(N)CC3)cc2)c1 [Example 8, 4′-(4-aminopiperidine-1-yl)-N-((5-fluoro-2-hydroxyphenyl)(1H-indole-2-yl)methyl)-5-(methylthio)-[1,1′-biphenyl]-3-carboxamide] | > 200 nM | > 200 nM |
| N#Cc1cc(C(=O)N[C@@H](c2cc3ccccc3[nH]2)c2cc(F)ccc2O)cc(-c2ccc(N3CCC(N)CC3)cc2)c1 [Example 9, 4′-(4-aminopiperidine-1-yl)-5-cyano-N-((5-fluoro-2-hydroxyphenyl)(1H-indole-2-yl)methyl)-[1,1′-biphenyl]-3-carboxamide] | > 200 nM | > 200 nM |
| NC1CCN(c2ccc(-c3cc(Cl)cc(C(=O)N[C@@H](c4cc5ccccc5[nH]4)c4cc(F)ccc4O)c3)cc2)CC1 [Example 10, (R)-4′-(4-aminopiperidine-1-yl)-5-chloro-N-((5-fluoro-2-hydroxyphenyl)(1H-indole-2-yl)methyl)-[1,1′-biphenyl]-3-carboxamide] | 30 to 200 nM | < 30 nM |

Other lines, results leading:

| GI50 [1] | GI50 [2] | SMILES |
| --- | --- | --- |
| < 30 nM | < 30 nM | Cc1cc(C(=O)N[C@@H](c2cc3ccccc3[nH]2)c2cc(F)ccc2O)cc(-c2ccc(N3CCC(N)CC3)cc2)c1 [Example 1, (R)-4′-(4-aminopiperidine-1-yl)-N-((5-fluoro-2-hydroxyphenyl)(1H-indole-2-yl)methyl)-5-methyl-[1,1′-biphenyl]-3-carboxamide] |
| < 30 nM |  | Cc1cc(C(=O)N[C@@H](c2cc3ccccc3[nH]2)c2cc(F)ccc2O)cc(-c2ncc(N3C4CCC3CN(C)C4)cn2)c1 [Example 46, N—((R)-(5-fluoro-2-hydroxyphenyl)(1H-indole-2-yl)methyl)-3-methyl-5-(5-(3-methyl-3,8-diazabicyclo[3.2.1]octane-8-yl)pyrimidine-2-yl)benzamide] |
| > 200 nM |  | Cc1cc(C(=O)N[C@@H](c2cc3ccccc3[nH]2)c2cc(F)ccc2O)cc(-c2ncc(N3CCC(n4cccc4)CC3)cn2)c1 [Example 47, (R)-3-(5-(4-(1H-pyrrole-1-yl)piperidine-1-yl)pyrimidine-2-yl)-N-((5-fluoro-2-hydroxyphenyl)(1H-indole-2-yl)methyl)-5-methylbenzamide] |
| 30 to 200 nM |  | Cc1cc(C(=O)N[C@@H](c2cc3ccccc3[nH]2)c2cc(F)ccc2O)cc(-c2ncc(N3CCC(n4cncn4)CC3)cn2)c1 [Example 48, (R)-3-(5-(4-(1H-1,2,4-triazole-1-yl)piperidine-1-yl)pyrimidine-2-yl)-N-((5-fluoro-2-hydroxyphenyl)(1H-indole-2-yl)methyl)-5-methylbenzamide] |
| < 30 nM |  | Cc1cc(C(=O)N[C@@H](c2cc3ccccc3[nH]2)c2cc(F)ccc2O)cc(-c2ncc(N3CCC(O)CC3)cn2)c1 [Example 49, (R)—N-((5-fluoro-2-hydroxyphenyl)(1H-indole-2-yl)methyl)-3-(5-(4-hydroxypiperidine-1-yl)pyrimidine-2-yl)-5-methylbenzamide] |
| < 30 nM |  | Cc1cc(C(=O)N[C@@H](c2cc3ccccc3[nH]2)c2cc(F)ccc2O)cc(-c2ncc(N3CCC(N4CCCCC4)CC3)cn2)c1 [Example 50, (R)-3-(5-([1,4′-bipiperidine]-1′-yl)pyrimidine-2-yl)-N-((5-fluoro-2-hydroxyphenyl)(1H-indole-2-yl)methyl)-5-methylbenzamide] |
| > 200 nM |  | Cc1cc(C(=O)N[C@@H](c2cc3ccccc3[nH]2)c2cc(F)ccc2O)cc(-c2ncc(N3CCC(CN4CCOCC4)CC3)cn2)c1 [Example 51, (R)—N-((5-fluoro-2-hydroxyphenyl)(1H-indole-2-yl)methyl)-3-methyl-5-(5-(4-(morpholinomethyl)piperidine-1-yl)pyrimidine-2-yl)benzamide] |
| > 200 nM |  | Cc1cc(C(=O)N[C@@H](c2cc3ccccc3[nH]2)c2cc(F)ccc2O)cc(-c2ncc(N3CCC(CN4CCCC4)CC3)cn2)c1 [Example 52, (R)—N-((5-fluoro-2-hydroxyphenyl)(1H-indole-2-yl)methyl)-3-methyl-5-(5-(4-(pyrrolidine-1-ylmethyl)piperidine-1-yl)pyrimidine-2-yl)benzamide] |
| < 30 nM |  | Cc1cc(C(=O)N[C@@H](c2cc3ccccc3[nH]2)c2cc(F)ccc2O)cc(-c2ncc(N3CC[C@@H](N(C)C)C3)cn2)c1 [Example 53, 3-[5-[(3R)-3-(dimethylamino)pyrrolidine-1-yl]pyrimidine-2-yl]-N—[(R)-(5-fluoro-2-hydroxy-phenyl)-(1H-indole-2-yl)methyl]-5-methyl-benzamide] |
| < 30 nM |  | CNC1CCN(c2cnc(-c3cc(C)cc(C(=O)N[C@@H](c4cc5ccccc5[nH]4)c4cc(F)ccc4O)c3)nc2)CC1 [Example 54, (R)—N-((5-fluoro-2-hydroxyphenyl)(1H-indole-2-yl)methyl)-3-methyl-5-(5-(4-(methylamino)piperidine-1-yl)pyrimidine-2-yl)benzamide] |
| > 200 nM |  | Cc1cc(C(=O)N[C@@H](c2cc3ccccc3[nH]2)c2cc(F)ccc2O)cc(-c2ncc(N3CCC(C(=O)Nc4ccccc4)CC3)cn2)c1 [Example 55, (R)-1-(2-(3-(((5-fluoro-2-hydroxyphenyl)(1H-indole-2-yl)methyl)carbamoyl)-5-methylphenyl)pyrimidine-5-yl)-N-phenylpiperidine-4-carboxamide] |
| > 200 nM |  | COCCOc1ccc(N2CCN(c3cnc(-c4cc(C)cc(C(=O)N[C@@H](c5cc6ccccc6[nH]5)c5cc(F)ccc5O)c4)nc3)CC2)cc1 [Example 56, (R)—N-((5-fluoro-2-hydroxyphenyl)(1H-indole-2-yl)methyl)-3-(5-(4-(4-(2-methoxyethoxy)phenyl)piperazine-1-yl)pyrimidine-2-yl)-5-methylbenzamide] |
